Source: ChEMBL document CHEMBL1201862, “PubChem BioAssay data set” (2004)
Values belong to the compound of their own block, whether it stands above or below them. The source made the active and inactive calls.

How the values were obtained:
[1] = target: T1, Carboxy-terminal domain RNA polymerase II polypeptide A small phosphatase 1 (Homo sapiens, UniProt Q9GZU7); test: inhibitors of CTDSP1, concentration-response testing, biochemical assay, absorbance-based, actives from ultra-high-throughput screening (AID 540297); format: functional
T1 sequence (Q9GZU7 whole entry): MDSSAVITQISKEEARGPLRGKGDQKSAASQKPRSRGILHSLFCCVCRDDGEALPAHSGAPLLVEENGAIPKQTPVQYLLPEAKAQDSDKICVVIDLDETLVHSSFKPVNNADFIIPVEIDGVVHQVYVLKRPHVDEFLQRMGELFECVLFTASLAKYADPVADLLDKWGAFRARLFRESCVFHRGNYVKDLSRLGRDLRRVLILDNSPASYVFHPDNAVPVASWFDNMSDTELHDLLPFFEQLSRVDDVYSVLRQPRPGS

[2] = target: T2, Low molecular weight phosphotyrosine protein phosphatase (Homo sapiens, UniProt P24666); format: functional; details: read-out: IC50_Mean
[3] = target: T3, Tyrosine-protein phosphatase non-receptor type 22 (Homo sapiens, UniProt Q9Y2R2); test: LYP phosphatase inhibition for selectivity, dose response, selectivity assay for LMPTP inhibitor project, biochemical, fluorescence, LYP catalytic domain (AID 652006); format: functional; details: read-out: IC50_Mean
T3 sequence (Q9Y2R2 whole entry): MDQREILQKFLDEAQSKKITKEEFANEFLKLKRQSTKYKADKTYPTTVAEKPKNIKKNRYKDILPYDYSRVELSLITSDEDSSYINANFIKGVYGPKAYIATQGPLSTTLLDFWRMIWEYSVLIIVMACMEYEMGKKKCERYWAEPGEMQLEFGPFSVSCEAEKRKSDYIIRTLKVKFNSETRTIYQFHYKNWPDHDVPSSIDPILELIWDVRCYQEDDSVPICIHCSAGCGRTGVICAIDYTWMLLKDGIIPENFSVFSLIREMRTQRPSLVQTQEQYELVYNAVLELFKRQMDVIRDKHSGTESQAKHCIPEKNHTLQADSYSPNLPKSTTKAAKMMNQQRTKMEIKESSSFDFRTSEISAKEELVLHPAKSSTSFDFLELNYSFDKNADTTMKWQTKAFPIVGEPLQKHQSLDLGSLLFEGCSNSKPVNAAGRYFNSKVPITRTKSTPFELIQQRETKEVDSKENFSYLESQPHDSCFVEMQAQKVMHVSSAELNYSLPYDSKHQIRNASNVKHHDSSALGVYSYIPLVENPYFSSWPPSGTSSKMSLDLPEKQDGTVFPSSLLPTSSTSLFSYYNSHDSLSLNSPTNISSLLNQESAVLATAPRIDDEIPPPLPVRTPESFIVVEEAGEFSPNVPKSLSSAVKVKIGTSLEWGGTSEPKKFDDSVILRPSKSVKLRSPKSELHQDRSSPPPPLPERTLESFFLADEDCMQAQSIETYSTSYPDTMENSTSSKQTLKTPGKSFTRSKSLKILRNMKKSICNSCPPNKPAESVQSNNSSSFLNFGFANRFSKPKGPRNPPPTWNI

[4] = target: T2, Low molecular weight phosphotyrosine protein phosphatase; format: functional; details: read-out: IC50_Mean; remark: listed apart in the source
[5] = target: Potassium voltage-gated channel subfamily KQT member 2 (Rattus norvegicus, UniProt O88943); test: KCNQ2 potassium channel inhibitors, dose response, cell-based, automated electrophysiology, set II, rat KCNQ2 (AID 588637); format: functional
[6] = target: Tyrosine-protein phosphatase non-receptor type 5 (Homo sapiens, UniProt P54829); test: STEP phosphatase inhibitors, confirmation, biochemical, fluorescence intensity, uHTS hits (AID 602372); format: functional; details: read-out: IC50_Mean
[7] = target: Dual specificity protein phosphatase 3 (Homo sapiens, UniProt P51452); test: VHR phosphatase inhibition, dose response, selectivity assay for STEP inhibitor project, biochemical (AID 602374); format: functional; details: read-out: IC50_Mean
[8] = target: Tyrosine-protein phosphatase non-receptor type 11 (Homo sapiens, UniProt Q06124); test: SHP2 phosphatase inhibition, dose response, selectivity assay for STEP inhibitor project, biochemical (AID 602367); format: functional; details: read-out: IC50_Mean
[9] = target: T4, Ubiquitin-conjugating enzyme E2 N (Homo sapiens, UniProt P61088); format: functional
T4 sequence (P61088 whole entry): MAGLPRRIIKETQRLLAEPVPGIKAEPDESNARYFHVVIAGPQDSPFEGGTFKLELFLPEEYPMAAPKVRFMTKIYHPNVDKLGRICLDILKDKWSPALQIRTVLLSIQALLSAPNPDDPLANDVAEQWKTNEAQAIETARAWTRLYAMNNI

[10] = target: Bcl-2-related protein A1 (Mus musculus, UniProt Q07440); format: functional;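 note: confirmatory dose–response counterscreen on Bfl-1, used to check hits from a UBC13 polyubiquitin inhibitor campaign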
[11] = target: T4, Ubiquitin-conjugating enzyme E2 N; format: functional; remark: listed apart in the source
[12] = tested on: Streptococcus; test: Group A Streptococcus viability loss, dose response, counter-screen for streptokinase expression inhibitor project, luminescence, BacTiterGlo (AID 1915); format: functional, organism-based;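 note: potency for reduction of bacterial viability or growth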
[13] = cytotoxicity toward NIH3T3 fibroblasts, dose response, counter-screen, cell-based, ATP luminescence, mouse fibroblasts (AID 2010); format: functional;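 note: cells exposed to compound for about 90 hours before reading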
[14] = MDA-MB-231 cell growth inhibition, dose response, cytotoxicity control for RAD54 inhibitor project, CellTiter-Glo luminescence, cherry-pick (AID 651692); format: functional, cell-based
[15] = inhibitors of intracellular T. cruzi replication, confirmation, NIH3T3 host cells, beta-gal luminescence (AID 2044); format: functional, cell-based;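 note: intracellular parasites grown in NIH/3T3 mouse fibroblasts as host cells; luminescent beta-galactosidase reporter signal from transgenic T. cruzi replicating inside host cells; inhibitors lower the luminescence signal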
[16] = tested on: Streptococcus sp. 'group A'; test: growth inhibition of control SK(-) GAS strain, dose response, counter-screen for streptokinase expression inhibitor project, luminescence, kanamycin, BacTiterGlo, confirmation (AID 1900); format: functional, organism-based
[17] = target: T5, DNA repair and recombination protein RAD54-like (Homo sapiens, UniProt Q92698); test: inhibitors of human RAD54 branch migration, confirmation, biochemical, fluorescence, cherry-picked samples, dose series (AID 651657); format: functional
T5 sequence (Q92698 whole entry): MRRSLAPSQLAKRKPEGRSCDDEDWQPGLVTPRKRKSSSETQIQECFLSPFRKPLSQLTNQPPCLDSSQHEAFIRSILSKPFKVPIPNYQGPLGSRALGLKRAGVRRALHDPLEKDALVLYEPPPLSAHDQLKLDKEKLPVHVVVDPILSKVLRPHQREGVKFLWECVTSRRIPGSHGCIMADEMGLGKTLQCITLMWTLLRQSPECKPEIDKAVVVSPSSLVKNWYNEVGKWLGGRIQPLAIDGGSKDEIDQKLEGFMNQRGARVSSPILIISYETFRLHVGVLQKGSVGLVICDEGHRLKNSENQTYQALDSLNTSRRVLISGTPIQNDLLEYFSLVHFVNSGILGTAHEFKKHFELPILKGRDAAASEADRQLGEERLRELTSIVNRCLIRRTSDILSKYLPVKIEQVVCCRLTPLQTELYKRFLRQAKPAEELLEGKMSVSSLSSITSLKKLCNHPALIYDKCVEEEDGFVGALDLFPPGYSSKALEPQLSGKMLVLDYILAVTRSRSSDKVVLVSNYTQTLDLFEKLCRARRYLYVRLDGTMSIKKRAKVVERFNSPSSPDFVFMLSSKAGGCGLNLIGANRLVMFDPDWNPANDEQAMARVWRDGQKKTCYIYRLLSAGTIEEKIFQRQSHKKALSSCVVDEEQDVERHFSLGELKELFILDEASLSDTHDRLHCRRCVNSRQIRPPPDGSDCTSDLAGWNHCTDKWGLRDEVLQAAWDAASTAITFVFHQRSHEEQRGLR

[18] = C. albicans growth with fluconazole, confirmation, fluorescence, retest (AID 2467); format: functional, cell-based
[19] = target: T6, Short transient receptor potential channel 4 (Mus musculus, UniProt Q9QUQ5); test: mouse TRPC4 channel inhibitors, dose response, cell-based, HEK293 TRPC4/mu-opioid, Fluo-4 calcium (AID 434942); format: functional;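 note: potency of inhibitors blocking the TRPC4 calcium response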
T6 sequence (Q9QUQ5 whole entry): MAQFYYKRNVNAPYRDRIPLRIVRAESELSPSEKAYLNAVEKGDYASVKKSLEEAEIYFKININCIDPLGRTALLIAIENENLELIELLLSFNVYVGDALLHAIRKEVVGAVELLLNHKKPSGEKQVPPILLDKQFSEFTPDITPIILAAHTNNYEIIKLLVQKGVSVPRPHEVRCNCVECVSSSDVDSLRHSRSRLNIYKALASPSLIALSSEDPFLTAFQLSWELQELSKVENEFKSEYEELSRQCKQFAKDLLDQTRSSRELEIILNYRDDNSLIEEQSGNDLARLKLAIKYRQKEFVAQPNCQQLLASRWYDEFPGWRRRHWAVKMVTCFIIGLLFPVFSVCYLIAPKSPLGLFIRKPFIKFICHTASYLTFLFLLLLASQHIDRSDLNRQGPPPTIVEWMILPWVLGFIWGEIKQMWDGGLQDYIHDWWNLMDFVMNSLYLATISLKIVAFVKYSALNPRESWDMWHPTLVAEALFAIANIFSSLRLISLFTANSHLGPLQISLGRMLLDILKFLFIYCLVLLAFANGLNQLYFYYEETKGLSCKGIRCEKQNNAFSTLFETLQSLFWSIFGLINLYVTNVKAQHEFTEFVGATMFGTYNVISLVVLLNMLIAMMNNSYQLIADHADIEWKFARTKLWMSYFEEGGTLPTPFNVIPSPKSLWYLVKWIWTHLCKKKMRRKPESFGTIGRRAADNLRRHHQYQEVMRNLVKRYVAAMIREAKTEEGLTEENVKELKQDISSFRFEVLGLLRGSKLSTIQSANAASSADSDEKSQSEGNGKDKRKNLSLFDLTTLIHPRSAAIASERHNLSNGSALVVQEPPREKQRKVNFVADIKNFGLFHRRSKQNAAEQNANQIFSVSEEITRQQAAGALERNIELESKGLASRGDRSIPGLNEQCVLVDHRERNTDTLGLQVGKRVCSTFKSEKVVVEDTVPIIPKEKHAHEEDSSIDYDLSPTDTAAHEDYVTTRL

[20] = NIH-3T3 fibroblast cytotoxicity, dose response, cytotoxicity control, cell-based, fluorescence, Alamar Blue, secondary assay (AID 2327); format: functional;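 note: NIH-3T3 mouse fibroblasts cultured with fluconazole at 8 µg/mL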
[21] = target: Benomyl/methotrexate resistance protein (Candida albicans, UniProt P28873); test: CaMdr1 efflux pump inhibitor potency, dose response, singleplex, Cherry Pick1 hits (AID 588608); format: functional
[22] = Fluorescence-based cell-based high throughput dose response assay for inhibitors of the interaction of nucleotide-binding oligomerization domain containing 2 (NOD2) and the receptor-interacting serine-threonine kinase 2 (RIPK2).; format: functional; details: Homo sapiens

T2 sequence (P24666 whole entry, the tested form may be a part): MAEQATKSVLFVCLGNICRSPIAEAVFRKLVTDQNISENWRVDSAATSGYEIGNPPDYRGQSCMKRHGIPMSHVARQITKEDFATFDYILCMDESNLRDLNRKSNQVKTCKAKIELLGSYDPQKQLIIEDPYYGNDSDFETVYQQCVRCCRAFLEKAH
Dual specificity protein phosphatase 3, sequence (P51452 whole entry): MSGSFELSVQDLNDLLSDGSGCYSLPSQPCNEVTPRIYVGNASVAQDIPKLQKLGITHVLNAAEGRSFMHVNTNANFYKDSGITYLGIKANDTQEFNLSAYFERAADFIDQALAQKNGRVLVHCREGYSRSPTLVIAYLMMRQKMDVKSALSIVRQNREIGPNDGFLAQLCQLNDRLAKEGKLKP
Bcl-2-related protein A1, sequence (Q07440 whole entry): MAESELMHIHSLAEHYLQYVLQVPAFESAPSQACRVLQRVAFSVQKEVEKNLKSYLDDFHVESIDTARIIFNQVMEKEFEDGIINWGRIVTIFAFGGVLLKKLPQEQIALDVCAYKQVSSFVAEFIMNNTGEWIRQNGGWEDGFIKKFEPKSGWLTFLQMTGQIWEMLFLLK
Benomyl/methotrexate resistance protein, sequence (P28873 whole entry, the tested form may be a part): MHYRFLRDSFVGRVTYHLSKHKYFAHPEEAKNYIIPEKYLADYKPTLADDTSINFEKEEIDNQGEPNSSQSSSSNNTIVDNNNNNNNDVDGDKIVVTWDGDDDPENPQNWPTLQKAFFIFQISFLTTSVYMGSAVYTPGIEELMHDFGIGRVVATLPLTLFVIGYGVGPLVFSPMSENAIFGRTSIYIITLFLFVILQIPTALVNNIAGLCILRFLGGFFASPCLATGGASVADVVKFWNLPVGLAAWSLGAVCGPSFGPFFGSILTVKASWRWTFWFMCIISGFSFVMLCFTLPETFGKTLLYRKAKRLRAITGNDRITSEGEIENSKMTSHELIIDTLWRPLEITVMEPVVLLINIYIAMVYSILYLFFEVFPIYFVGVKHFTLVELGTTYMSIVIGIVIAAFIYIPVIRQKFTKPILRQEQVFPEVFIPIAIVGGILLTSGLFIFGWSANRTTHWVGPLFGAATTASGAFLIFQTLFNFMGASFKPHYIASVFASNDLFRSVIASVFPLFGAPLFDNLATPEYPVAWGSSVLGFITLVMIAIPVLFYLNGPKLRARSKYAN
Tyrosine-protein phosphatase non-receptor type 5, sequence (P54829 whole entry): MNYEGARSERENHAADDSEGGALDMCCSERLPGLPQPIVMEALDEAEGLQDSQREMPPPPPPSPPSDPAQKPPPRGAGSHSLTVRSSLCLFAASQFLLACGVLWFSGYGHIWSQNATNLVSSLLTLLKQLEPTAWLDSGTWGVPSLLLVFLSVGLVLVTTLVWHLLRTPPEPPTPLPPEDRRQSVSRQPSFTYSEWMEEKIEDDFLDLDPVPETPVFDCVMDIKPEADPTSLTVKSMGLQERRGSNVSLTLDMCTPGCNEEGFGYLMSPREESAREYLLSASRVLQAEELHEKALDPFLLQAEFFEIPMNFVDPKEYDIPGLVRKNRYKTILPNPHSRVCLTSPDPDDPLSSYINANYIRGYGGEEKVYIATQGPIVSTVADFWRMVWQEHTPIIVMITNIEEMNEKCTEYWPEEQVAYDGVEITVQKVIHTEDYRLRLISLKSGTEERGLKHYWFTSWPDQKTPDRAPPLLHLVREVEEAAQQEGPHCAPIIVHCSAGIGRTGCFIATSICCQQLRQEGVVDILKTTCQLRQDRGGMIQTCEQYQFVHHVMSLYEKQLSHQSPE
Potassium voltage-gated channel subfamily KQT member 2, sequence (O88943 whole entry): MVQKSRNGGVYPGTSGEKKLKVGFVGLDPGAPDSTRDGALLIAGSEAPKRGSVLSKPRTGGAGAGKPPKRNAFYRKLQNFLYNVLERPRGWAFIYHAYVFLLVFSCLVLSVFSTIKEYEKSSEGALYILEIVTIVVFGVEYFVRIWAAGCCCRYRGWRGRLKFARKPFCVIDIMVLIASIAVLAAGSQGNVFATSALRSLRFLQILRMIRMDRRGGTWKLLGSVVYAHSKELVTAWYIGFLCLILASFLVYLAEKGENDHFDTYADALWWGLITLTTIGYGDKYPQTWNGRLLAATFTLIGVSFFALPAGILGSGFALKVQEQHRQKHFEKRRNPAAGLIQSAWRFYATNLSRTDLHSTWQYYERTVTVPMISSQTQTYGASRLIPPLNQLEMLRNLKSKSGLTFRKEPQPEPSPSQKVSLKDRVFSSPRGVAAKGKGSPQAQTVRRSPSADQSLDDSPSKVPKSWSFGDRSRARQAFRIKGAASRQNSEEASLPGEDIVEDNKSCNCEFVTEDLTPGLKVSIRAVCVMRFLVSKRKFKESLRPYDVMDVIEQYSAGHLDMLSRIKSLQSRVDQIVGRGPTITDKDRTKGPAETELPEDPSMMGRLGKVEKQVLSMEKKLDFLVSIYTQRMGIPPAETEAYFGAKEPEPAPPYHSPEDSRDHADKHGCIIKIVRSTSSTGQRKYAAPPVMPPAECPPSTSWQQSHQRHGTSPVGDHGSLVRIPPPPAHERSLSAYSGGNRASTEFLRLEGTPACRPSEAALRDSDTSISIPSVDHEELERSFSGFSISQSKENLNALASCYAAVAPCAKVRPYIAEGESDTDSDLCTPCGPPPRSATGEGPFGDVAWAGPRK

Structure (SMILES): O=C(CCN1C(=O)/C(=C/c2ccc3c(c2)OCO3)SC1=S)Nc1ccc(C(=O)O)cc1
- IC50 [1]: 2.3 µM (active)
- IC50 [2]: 8.74 µM (active)
- IC50 [3]: 12.9 µM (active)
- IC50 [4]: 16.2 µM (active)

Structure (SMILES): CN(C)CCCn1c(SCC(=O)Nc2nc(-c3cccc(Br)c3)cs2)nc2ccccc2c1=O
- IC50 [9]: 5.29 µM (active)
- IC50 [10]: 13.1 µM (active)
- IC50 [11]: 5.58 µM (active)
- EC50 [12]: 6.99 µM (active)
- EC50 [13]: 4.52 µM (active)
- AC50 [14]: 13.9 µM (active)
- EC50 [15]: 1.66 µM (active)
- EC50 [16]: 3.17 µM (active)
- AC50 [17]: 95.9 µM (active)

Structure (SMILES): O=C(C[n+]1cc(-c2ccc(Cl)c(Cl)c2)n2c1CCC2)N1c2ccccc2Sc2ccccc21
- EC50 [18]: 1.1 µM (active)
- EC50 [19]: 1.88 µM (active)
- IC50 [11]: > 20 µM (inactive)
- EC50 [13]: > 60 µM (not active)
- EC50 [15]: 0.845 µM (active)
- EC50 [20]: > 150 µM (inactive)
- EC50 [21]: 0.014 µM (active)

Structure (SMILES): Cn1cnc([N+](=O)[O-])c1S(=O)(=O)Oc1cccc2ccccc12
- IC50 [22]: 3.4 µM (active)

Continued, values first:

- IC50 [5]: 4.96 µM (active)
Structure (SMILES): COc1cc2cc(C(c3nnnn3Cc3ccc(F)cc3)N3CCCCCC3)c(O)nc2cc1OC (stereo not given)

- IC50 [6]: 26.5 µM (inactive)
- IC50 [7]: 1.22 µM (active)
- IC50 [8]: 3.15 µM (active)
Structure (SMILES): Cc1nn(C)cc1/C=N/NC(=S)Nc1ccccc1
